Assay [1] concerns the target T1, 5-hydroxytryptamine receptor 1A (Homo sapiens, UniProt P08908).
T1 sequence (P08908 whole entry): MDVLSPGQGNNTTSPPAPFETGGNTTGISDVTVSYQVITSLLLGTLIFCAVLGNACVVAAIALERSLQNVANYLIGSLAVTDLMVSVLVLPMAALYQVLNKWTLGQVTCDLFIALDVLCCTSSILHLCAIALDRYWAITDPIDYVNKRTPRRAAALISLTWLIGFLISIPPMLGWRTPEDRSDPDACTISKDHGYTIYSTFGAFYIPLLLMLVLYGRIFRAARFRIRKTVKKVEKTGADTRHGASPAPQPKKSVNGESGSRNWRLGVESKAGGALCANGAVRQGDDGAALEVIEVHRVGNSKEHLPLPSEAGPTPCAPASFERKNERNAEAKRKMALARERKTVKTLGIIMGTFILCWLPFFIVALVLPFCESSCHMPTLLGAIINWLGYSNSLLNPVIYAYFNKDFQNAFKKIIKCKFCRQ
Briefly: Compound was tested for its binding affinity against 5-hydroxytryptamine 1A receptor using [3H]8-OH-DPAT radioligand.

The next assay has as its target D(2) dopamine receptor (Rattus norvegicus, UniProt P61169). Briefly: Compound was tested for its binding affinity against Dopamine receptor D2 using [3H]raclopride radioligand.

Our source for the Ki values is ChEMBL document CHEMBL1126496, “4-Aminomethyl chromans: dependence of serotonin and dopamine binding upon aromatic ring substitution” (Bioorg Med Chem Lett, 1993).

D(2) dopamine receptor, sequence (P61169 whole entry): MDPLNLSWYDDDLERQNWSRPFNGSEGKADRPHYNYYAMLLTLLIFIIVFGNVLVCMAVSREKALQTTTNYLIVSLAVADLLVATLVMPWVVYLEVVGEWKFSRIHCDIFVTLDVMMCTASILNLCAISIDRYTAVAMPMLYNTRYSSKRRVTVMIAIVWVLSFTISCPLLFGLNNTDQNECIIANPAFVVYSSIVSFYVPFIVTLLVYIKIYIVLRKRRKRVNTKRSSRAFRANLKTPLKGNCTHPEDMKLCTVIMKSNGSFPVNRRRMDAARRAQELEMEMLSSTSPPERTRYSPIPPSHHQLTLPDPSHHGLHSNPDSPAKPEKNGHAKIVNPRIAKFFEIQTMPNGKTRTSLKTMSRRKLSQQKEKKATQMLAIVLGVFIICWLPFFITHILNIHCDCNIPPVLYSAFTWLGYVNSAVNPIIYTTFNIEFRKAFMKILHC

One may read the Ki as the equilibrium dissociation constant of an inhibitor or competing ligand from its target. Read a high Ki as lower affinity. With `COc1cccc2c1C(CN1CCC3(CC1)C(=O)NCN3c1ccccc1)CCO2` (stereo unspecified), the values for the Ki (in assay [1]; on D(2) dopamine receptor) were 12 nM and 29 nM, respectively.
Consider `COc1ccc2c(c1)C(CN1CCC3(CC1)C(=O)NCN3c1ccccc1)CCO2` (stereo unspecified), for which the Ki in assay [1] amounted to 247 nM; at D(2) dopamine receptor it was 164 nM.
On the same counts, the results for `COc1ccc2c(c1)OCCC2CNCCCc1ccccc1` (stereo unspecified) are 28 nM and > 1000 nM.
For `COc1ccc2c(c1)OCCC2CN1CCC2(CC1)C(=O)NCN2c1ccccc1` (stereo unspecified), the values for the inhibitory constant (Ki) (in assay [1]; at D(2) dopamine receptor) were 611 nM and 274 nM, respectively.
`COc1cccc2c1OCCC2CNCCCc1ccccc1` (stereo unspecified): the results for the Ki (in assay [1]; at D(2) dopamine receptor) were 7 nM and 620 nM, respectively.
For `COc1ccc2c(c1)C(CNCCCc1ccccc1)CCO2` (stereo unspecified), the Ki in assay [1] is 93 nM; at D(2) dopamine receptor, > 1000 nM.
Turning to `COc1cccc2c1OCCC2CN1CCC2(CC1)C(=O)NCN2c1ccccc1` (stereo unspecified), the inhibition constant (Ki) (in assay [1]; on D(2) dopamine receptor) was > 1000 nM each time.
As for `COc1cccc2c1C(CNCCCc1ccccc1)CCO2` (stereo unspecified), the Ki is > 1000 nM in assay [1] and 279 nM at D(2) dopamine receptor.
